{"source": "patent US20220125854A1", "about": "“PREPARATION AND EXTENDED CULTURE OF VASCULAR ENDOTHELIAL PROGENITOR CELL” (PUBLIC UNIVERSITY CORPORATION NAGOYA CITY UNIVERSITY, priority 2019, published 2022)", "origin": "cited, not measured here", "settings_in_all_cases": "report", "key": {"HUVECs": {"tested_on": "HUVECs"}, "[1]": {"tested_on": "ECs derived from ES cells"}, "[2]": {"tested_on": "ECs derived from iPS cells"}}}
{"smiles": "Cc1c[nH]c(-c2cnc(NCCNc3ccc(C#N)cn3)nc2-c2ccc(Cl)cc2Cl)n1", "note": "[CHIR 99021]", "values": [{"measurement": "proliferation potency of HUVECs", "setting": "HUVECs", "result": "enhances the proliferation potency"}]}
{"smiles": "NC(=O)c1ccc(-c2nc(-c3ccccn3)c(-c3ccc4c(c3)OCO4)[nH]2)cc1", "note": "[SB 43152]", "values": [{"measurement": "proliferation potency of ECs derived from ES cells", "setting": "[1]", "result": "enhances the proliferation potency"}]}
{"smiles": "C[C@@H](N)[C@H]1CC[C@H](C(=O)Nc2ccncc2)CC1", "note": "[Y-27632]", "values": [{"measurement": "proliferation potency of ECs derived from iPS cells", "setting": "[2]", "result": "enhancing the proliferation potency"}]}
